In patent publication US9403823B2, “Protein kinase inhibitors” (ORIBASE PHARMA, priority 2012, dated 2016) one finds EC50 and inhibition data, which are given here for 1 compound.

For test [1], the system named is HUVEC. As to the kind of experiment: In vitro cell proliferation assay (MTT), HUVEC. Particulars: Homo sapiens, 72 hr, MTT, read-out: EC50, anti-proliferative activity. The class given is cell-based. Summed up: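 HUVEC cells were plated at 1×10^4 cells per well in 96-well plates and exposed in duplicate to increasing compound concentrations from 10 nM to 3 μM for 72 hr. Proliferation was then quantified with MTT (3[4,5-dimethylthiazol-2-yl]-2,5-diphenyltetrazolium bromide) to determine anti-proliferative activity.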

Test [2] deals with T1, PDGFRB (Homo sapiens, UniProt P09619).
T1 construct: purchased Invitrogen
The test is described as follows: In vitro kinase assay (Z'-LYTE), PDGFRB. The class given is biochemical. The note with it: read-out: % of inhibition of the kinase compared to the control. On the procedure: (§1) 1) In Vitro Kinase Assays (Table 10 to Table 21)
(§2) The inhibitory activity of the compounds on several kinases including BRAF, EGFR (ErbB1), EGFR (ErbB1) T790M L858R, FGFR2, KDR (VEGFR2), PDGFRA (PDGFR alpha), SRC and other was evaluated by Invitrogen using the Z′-LYTE® technology. Briefly, the Z′-LYTE® biochemical assay employs a fluorescence-based, coupled-enzyme format and is based on the differential sensitivity of phosphorylated and non-phosphorylated peptides to proteolytic cleavage. The peptide substrate is labeled with two fluorophores—one at each end—that make up a FRET pair. A ratiometric method, which calculates the ratio (the Emission Ratio) of donor emission to acceptor emission after excitation of the donor fluorophore at 400 nm, is used to quantitate reaction progress.
(§3) The compounds are screened in 1% DMSO (final) in the well. For 10 point titrations, 3-fold serial dilutions are conducted from the starting concentration. All Peptide/Kinase Mixtures are diluted to a 2× working concentration in the appropriate Kinase Buffer. All ATP Solutions are diluted to a 4× working concentration in Kinase Buffer (50 mM HEPES pH 7.5, 0.01% BRIJ-35, 10 mM MgCl2, 1 mM EGTA). ATP Km apparent is previously determined using a Z′-LYTE® assay. […]

Test [3] deals with T2, FGFR2 (Homo sapiens, UniProt P21802).
T2 construct: purchased Invitrogen
As to the kind of experiment: In vitro kinase assay (Z'-LYTE), FGFR2. It is filed as biochemical. The note with it: read-out: % of inhibition of the kinase compared to the control. Summed up: (§4)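 FRET-based Z'-LYTE coupled-enzyme assay: kinase phosphorylates a dual-fluorophore peptide, unphosphorylated peptide is protease-cleaved, and donor/acceptor emission ratio after 400 nm excitation quantifies progress. Buffer 50 mM HEPES pH 7.5, 10 mM MgCl2, 1 mM EGTA, 0.01% BRIJ-35; 1% DMSO final. Single compound concentration: 100 nM, or 10 μM for ABL and ABL T315I.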

Test [4] deals with T3, VEGFR1 (Homo sapiens, UniProt P17948).
T3 construct: purchased Invitrogen
As to the kind of experiment: In vitro kinase assay (Z'-LYTE), VEGFR1. The note with it: read-out: % of inhibition of the kinase compared to the control. It is filed as biochemical. The procedure: as §1, §2, §3

Test [5] deals with T4, FGFR1 (Homo sapiens, UniProt P11362).
T4 construct: purchased Invitrogen
As to the kind of experiment: In vitro kinase assay (Z'-LYTE), FGFR1. It is filed as biochemical. The note with it: read-out: % of inhibition of the kinase compared to the control. On the procedure:
as §1, §2, §3

Test [6] deals with T5, PDGFRA (PDGFR alpha) (Homo sapiens, UniProt P16234).
T5 construct: purchased Invitrogen
The test is described as follows: In vitro kinase assay (Z'-LYTE), PDGFRA. The note with it: read-out: % of inhibition of the kinase compared to the control. The class given is biochemical. A digest of the protocol: as §4

Test [7] deals with T6, KDR (VEGFR2) (Homo sapiens, UniProt P35968).
T6 construct: purchased Invitrogen
As to the kind of experiment: In vitro kinase assay (Z'-LYTE), KDR (VEGFR2). The note with it: read-out: % of inhibition of the kinase compared to the control. It is filed as biochemical. Summed up:
as §4

Test [8] has as its target T7, ABL (Homo sapiens, UniProt P00519).
T7 construct: purchased Invitrogen
The test is described as follows: In vitro kinase assay (Z'-LYTE), ABL. The class given is biochemical. The note with it: read-out: % of inhibition of the kinase compared to the control. On the procedure:
as §1, §2
(§5) The compounds are screened in 1% DMSO (final) in the well. For 10 point titrations, 3-fold serial dilutions are conducted from the starting concentration. All Peptide/Kinase Mixtures are diluted to a 2× working concentration in the appropriate Kinase Buffer. All ATP Solutions are diluted to a 4× working concentration in Kinase Buffer (50 mM HEPES pH 7.5, 0.01% BRIJ-35, 10 mM MgCl2, 1 mM EGTA). ATP Km apparent is previously determined using a Z′-LYTE® assay.
(§6) Each compound was incubated at a concentration of 100 nM (excepted to test the activity against ABL and ABL T315I for which the compounds were incubated at a concentration of 10 μM) and the tables 10 to 21 summarize the results obtained showing the inhibitory power of a compound.

For test [9], the system named is H1975 cell line. The test is described as follows: In vitro cell proliferation assay (MTT), H1975. It is filed as cell-based. Particulars: Homo sapiens, NCI-H1975; H1975, 72 hr, MTT; read-out: EC50, anti-proliferative activity. Summed up: (§7)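 Cancer cell lines were seeded at 5×10^3 cells per well and HRMEC at 1×10^4 cells per well, then incubated in duplicate with escalating compound concentrations (10 nM to 3 μM) for 72 hr. Proliferation was read by MTT.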

In test [10] the test system is HT29 cell line. As to the kind of experiment: In vitro cell proliferation assay (MTT), HT29. It is filed as cell-based. The note with it: Homo sapiens, HT-29; HT29, 72 hr, MTT; read-out: EC50, anti-proliferative activity. Summed up: as §7
For test [11], the system named is A549 cell line. As to the kind of experiment: In vitro cell proliferation assay (MTT), A549. It is filed as cell-based. The note with it: Homo sapiens; A549, 72 hr, MTT; read-out: EC50, anti-proliferative activity. Summed up:
as §7

Test [12] deals with T8, EGFR (ErbB1) T790M L858R (Homo sapiens, UniProt P00533, L858R/T790M).
T8 construct: purchased Invitrogen
As to the kind of experiment: In vitro kinase assay (Z'-LYTE), EGFR (ErbB1) T790M L858R. The class given is biochemical. Particulars: read-out: % of inhibition of the kinase compared to the control. Summed up: as §4

The subject of test [13] is BxPC-3 cell line. The test is described as follows: In vitro cell proliferation assay (MTT), BxPC-3. The class given is cell-based. The note with it: Homo sapiens; BxPC-3, 72 hr, MTT; read-out: EC50, anti-proliferative activity. The procedure: 2) In Vitro Cell Proliferation Assays (Table 22 to Table 35)
Cancer cell lines (5×10^3 cells per well) or HUVEC (1×10^4 cells per well) or HRMEC (1×10^4 cells per well) were distributed in 96-well plates and incubating in duplicate with escalating concentrations (10 nM to 3 μM) of compounds for 72 hr. Cell proliferation was measured using MTT (3[4,5-dimethylthiazol-2-yl]-2,5-diphenyltetrazolium bromide).

The subject of test [14] is HepG2 cell line. As to the kind of experiment: In vitro cell proliferation assay (MTT), HepG2. The class given is cell-based. The note with it: Homo sapiens; HepG2, 72 hr, MTT; read-out: EC50, anti-proliferative activity. Summed up: as §7
The target in test [15] is T9, BRAF (Homo sapiens, UniProt P15056).
T9 construct: purchased Invitrogen
The test is described as follows: In vitro kinase assay (Z'-LYTE), BRAF. It is filed as biochemical. The note with it: read-out: % of inhibition of the kinase compared to the control. Summed up:
as §4

The target in test [16] is T10, SRC (Homo sapiens, UniProt P12931).
T10 construct: purchased Invitrogen
As to the kind of experiment: In vitro kinase assay (Z'-LYTE), SRC. It is filed as biochemical. The note with it: read-out: % of inhibition of the kinase compared to the control. Summed up: as §4

In test [17] the target is T11, EGFR (ErbB1) (Homo sapiens, UniProt P00533).
T11 construct: purchased Invitrogen
The test is described as follows: In vitro kinase assay (Z'-LYTE), EGFR (ErbB1). It is filed as biochemical. Particulars: read-out: % of inhibition of the kinase compared to the control. A digest of the protocol:
as §4

Test [18] has as its target T12, ABL T315I (Homo sapiens, UniProt P00519, T315I).
T12 construct: purchased Invitrogen
As to the kind of experiment: In vitro kinase assay (Z'-LYTE), ABL T315I. The class given is biochemical. Particulars: read-out: % of inhibition of the kinase compared to the control. On the procedure: as §1, §2, §5, §6

T11 sequence (P00533 25-1210): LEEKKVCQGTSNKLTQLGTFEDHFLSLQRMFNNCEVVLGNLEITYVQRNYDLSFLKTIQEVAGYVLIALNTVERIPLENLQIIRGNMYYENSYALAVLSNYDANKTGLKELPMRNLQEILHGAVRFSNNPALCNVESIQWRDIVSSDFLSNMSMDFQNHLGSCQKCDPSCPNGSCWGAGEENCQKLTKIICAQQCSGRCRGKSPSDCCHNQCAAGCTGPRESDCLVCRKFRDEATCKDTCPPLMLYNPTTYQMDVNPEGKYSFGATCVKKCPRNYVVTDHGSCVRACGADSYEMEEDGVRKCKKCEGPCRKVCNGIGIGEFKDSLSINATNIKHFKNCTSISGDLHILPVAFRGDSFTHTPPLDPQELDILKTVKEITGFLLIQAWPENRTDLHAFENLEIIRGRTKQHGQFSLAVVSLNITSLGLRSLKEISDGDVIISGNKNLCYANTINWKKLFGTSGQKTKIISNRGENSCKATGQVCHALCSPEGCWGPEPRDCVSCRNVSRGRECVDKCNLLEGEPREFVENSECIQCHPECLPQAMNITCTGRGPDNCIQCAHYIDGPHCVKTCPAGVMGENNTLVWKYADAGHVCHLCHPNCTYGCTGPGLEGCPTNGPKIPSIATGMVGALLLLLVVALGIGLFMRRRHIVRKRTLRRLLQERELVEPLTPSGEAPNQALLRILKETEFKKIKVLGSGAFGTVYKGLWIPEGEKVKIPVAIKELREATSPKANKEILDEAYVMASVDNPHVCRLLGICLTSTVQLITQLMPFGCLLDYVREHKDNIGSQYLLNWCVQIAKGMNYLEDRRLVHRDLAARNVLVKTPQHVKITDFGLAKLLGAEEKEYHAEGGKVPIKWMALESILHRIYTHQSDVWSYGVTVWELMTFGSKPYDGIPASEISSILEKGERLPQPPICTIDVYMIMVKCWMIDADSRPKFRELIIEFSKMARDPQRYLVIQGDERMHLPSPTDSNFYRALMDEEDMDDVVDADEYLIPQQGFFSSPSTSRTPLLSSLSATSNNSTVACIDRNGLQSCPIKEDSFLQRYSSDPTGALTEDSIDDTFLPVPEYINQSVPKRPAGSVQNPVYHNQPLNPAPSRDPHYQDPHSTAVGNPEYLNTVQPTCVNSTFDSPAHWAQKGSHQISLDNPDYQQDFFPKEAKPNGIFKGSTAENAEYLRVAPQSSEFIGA
T3 sequence (P17948 27-1338): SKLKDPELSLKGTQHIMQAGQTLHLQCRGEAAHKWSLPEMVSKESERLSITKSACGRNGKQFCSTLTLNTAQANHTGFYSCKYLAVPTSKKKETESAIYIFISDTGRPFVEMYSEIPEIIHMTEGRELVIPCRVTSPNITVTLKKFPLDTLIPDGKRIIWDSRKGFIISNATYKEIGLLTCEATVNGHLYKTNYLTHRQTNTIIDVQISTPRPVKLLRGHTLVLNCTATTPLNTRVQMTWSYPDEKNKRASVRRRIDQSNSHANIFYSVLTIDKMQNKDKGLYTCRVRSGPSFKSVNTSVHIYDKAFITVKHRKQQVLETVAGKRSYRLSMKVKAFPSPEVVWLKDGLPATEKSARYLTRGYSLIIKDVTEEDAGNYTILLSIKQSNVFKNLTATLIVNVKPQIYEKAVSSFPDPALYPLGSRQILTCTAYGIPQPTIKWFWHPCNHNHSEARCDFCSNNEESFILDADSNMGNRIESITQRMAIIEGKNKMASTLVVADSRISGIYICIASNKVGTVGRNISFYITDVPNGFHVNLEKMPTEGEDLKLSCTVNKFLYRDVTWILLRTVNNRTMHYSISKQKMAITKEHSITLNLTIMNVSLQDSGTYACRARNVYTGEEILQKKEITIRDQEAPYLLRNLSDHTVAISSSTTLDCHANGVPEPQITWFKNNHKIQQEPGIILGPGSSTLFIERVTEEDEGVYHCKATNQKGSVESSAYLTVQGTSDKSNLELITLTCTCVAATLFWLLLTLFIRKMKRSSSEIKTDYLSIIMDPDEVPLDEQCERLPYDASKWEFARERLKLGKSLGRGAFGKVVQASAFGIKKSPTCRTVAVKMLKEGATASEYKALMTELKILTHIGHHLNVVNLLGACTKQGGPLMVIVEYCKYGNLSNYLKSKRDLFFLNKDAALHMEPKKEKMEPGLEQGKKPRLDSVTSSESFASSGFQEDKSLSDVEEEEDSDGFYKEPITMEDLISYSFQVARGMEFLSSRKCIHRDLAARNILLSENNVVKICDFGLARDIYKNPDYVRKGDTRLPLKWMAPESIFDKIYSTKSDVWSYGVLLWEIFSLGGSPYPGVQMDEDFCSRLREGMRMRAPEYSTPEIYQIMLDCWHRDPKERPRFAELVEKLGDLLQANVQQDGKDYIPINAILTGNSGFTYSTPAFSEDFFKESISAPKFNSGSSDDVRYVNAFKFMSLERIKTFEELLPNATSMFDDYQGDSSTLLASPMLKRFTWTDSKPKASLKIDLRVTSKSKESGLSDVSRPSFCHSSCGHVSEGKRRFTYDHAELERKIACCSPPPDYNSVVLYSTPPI
T5 sequence (P16234 24-1089): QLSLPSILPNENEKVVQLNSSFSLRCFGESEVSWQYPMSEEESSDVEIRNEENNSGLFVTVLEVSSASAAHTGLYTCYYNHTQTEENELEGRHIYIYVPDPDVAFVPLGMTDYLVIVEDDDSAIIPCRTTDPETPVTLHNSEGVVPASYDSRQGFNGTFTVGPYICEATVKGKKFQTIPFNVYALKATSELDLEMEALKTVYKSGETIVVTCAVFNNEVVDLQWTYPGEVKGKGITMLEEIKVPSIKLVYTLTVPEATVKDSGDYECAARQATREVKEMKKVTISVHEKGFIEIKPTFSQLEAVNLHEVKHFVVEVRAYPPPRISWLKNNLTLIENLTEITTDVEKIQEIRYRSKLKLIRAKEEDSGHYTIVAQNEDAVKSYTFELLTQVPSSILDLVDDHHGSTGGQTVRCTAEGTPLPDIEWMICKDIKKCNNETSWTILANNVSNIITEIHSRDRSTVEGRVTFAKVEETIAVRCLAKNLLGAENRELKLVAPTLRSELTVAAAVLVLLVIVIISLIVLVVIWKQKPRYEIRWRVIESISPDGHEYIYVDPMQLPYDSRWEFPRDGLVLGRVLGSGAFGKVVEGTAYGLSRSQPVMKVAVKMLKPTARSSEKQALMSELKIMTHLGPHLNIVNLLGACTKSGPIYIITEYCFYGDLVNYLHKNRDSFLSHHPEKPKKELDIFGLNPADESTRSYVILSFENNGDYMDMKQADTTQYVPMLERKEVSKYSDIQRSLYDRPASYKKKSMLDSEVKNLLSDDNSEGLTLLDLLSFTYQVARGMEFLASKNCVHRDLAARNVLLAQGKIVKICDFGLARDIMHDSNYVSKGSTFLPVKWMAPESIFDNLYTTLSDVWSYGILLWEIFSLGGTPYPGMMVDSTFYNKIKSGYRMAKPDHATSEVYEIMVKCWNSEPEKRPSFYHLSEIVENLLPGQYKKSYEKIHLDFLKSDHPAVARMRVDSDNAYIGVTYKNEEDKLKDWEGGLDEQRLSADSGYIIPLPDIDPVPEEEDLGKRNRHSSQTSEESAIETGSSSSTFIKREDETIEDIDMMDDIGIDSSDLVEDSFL
T2 sequence (P21802 22-821): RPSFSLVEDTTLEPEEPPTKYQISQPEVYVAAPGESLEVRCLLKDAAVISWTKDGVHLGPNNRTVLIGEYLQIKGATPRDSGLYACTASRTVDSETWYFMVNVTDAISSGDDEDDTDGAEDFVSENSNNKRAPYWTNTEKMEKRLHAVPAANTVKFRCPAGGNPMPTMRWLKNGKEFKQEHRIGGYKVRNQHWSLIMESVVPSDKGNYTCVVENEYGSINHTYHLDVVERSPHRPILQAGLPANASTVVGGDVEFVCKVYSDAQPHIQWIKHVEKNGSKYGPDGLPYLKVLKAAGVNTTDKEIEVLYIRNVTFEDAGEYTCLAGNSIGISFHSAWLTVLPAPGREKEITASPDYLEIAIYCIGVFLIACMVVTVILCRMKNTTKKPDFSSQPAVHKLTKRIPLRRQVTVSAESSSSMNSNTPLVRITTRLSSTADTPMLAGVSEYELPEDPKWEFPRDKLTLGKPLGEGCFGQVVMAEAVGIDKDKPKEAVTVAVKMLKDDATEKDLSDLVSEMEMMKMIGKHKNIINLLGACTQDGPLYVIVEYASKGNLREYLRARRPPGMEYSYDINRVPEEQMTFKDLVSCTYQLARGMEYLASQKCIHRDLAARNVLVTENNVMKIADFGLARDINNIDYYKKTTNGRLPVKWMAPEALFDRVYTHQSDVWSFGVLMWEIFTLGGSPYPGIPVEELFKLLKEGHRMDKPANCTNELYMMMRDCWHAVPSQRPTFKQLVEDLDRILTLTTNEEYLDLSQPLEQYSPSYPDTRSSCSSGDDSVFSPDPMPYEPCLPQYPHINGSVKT
T9 sequence (P15056 whole entry): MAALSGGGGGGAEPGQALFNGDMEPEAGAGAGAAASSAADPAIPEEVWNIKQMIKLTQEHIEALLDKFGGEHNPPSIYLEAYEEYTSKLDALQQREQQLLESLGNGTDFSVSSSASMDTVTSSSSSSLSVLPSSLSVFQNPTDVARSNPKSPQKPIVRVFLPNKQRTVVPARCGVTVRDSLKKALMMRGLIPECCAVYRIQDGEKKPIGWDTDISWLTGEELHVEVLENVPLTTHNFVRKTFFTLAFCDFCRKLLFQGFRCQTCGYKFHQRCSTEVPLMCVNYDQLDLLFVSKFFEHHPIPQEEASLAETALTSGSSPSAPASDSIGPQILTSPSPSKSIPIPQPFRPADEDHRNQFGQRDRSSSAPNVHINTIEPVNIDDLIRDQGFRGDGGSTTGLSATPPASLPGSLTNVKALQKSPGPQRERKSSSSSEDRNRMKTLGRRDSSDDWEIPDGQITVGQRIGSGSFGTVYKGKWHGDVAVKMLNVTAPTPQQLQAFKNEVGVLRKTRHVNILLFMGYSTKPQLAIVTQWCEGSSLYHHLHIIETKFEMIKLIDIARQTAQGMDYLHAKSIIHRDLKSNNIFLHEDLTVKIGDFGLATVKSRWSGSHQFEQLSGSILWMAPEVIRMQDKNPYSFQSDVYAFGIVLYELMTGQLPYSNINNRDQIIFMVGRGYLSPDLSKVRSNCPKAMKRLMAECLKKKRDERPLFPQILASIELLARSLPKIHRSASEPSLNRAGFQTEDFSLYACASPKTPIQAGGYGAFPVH

As a reminder, the EC50 is the concentration needed to bring the measured effect to its halfway point. For orientation: inhibition means the share of the control response that was lost under treatment. As for `Cc1ccc(NC(=O)c2ccc(CN3CCN(C)CC3)c(C(F)(F)F)c2)cc1CNc1cnc2[nH]c(C(=O)O)cc2c1` [OR0623, 5-{2-Methyl-5-[4-(4-methyl-piperazin-1-ylmethyl)-3-trifluoromethyl-benzoylamino]-benzylamino}-1H-pyrrolo[2,3-b]pyridine-2-carboxylic acid], the EC50 in test [1], in test [9], in [10], in [11], in test [13] and in [14] was ≥ 1000 nM in each case. The inhibition at 0.1 µM in [2], in test [3], in test [4], in test [5], in [6] and in test [7] was ≥ 50% each time. Moreover, the inhibition at 0.1 µM is ≥ 50% in test [12], < 50% in test [15], ≥ 50% in test [16] and ≥ 50% in test [17]. Further, the inhibition at 10 µM in test [8] and in test [18] was ≥ 50% each time.
